Experimental data from BindingDB's records for doi:10.1016/j.bmc.2007.03.073 (University of Upper Alsace, 2007).

Assay: Inhibition of yeast alpha-D-glucosidase

| Structure (SMILES) | Ki | IC50 |
| --- | --- | --- |
| O[C@H]1[C@H](O)CN[C@H]1O | 2 µM |  |
| OC[C@H]1NC(O)[C@H](O)[C@@H](O)[C@@H]1O (stereo partly drawn) [NOJIRIMYCIN] | 6.3 µM |  |
| O=C1CNC[C@@H]1O |  | 150 µM |
